Results from article PMC8426237, “A first-in-human phase I study of TAS0728, an oral covalent binding inhibitor of HER2, in patients with advanced solid tumors with HER2 or HER3 aberrations” (Investigational New Drugs, 2021).

Experiment: Phase I safety assessment: adverse events (CTCAE v5.0) in patients
[1] = Dose Level 3: 200 mg BID (N = 7)
[2] = Dose Level 3d: 150 mg BID (N = 6)
[3] = all treated population, overall

Experimental: A DLT was defined as a study treatment-related adverse event (TRAE), according to the Common Terminology Criteria for Adverse Events (CTCAE, Version 5.0), with qualifying criteria for certain DLTs (e.g., Grade ≥ 3 diarrhea, was included as a DLT only if lasting >48 h and unresponsive to intensive antidiarrheal medication).
Patients were closely monitored for these potential toxicities during the current study. Safety assessments included recording of AEs and serious AEs (SAEs) from the time of signing the study informed consent form to 30 days after the last dose of study medication. Safety parameters including laboratory evaluations (hematology, coagulation, chemistry, and urinalysis), vital sign measurements and body weight, electrocardiogram (ECG) recordings, ECOG performance status, echocardiogram or multi-gated acquisition (MUGA), and physical examination were assessed at screening, during the study and at 30 days following the last dose. The use of concomitant medications was permitted and details for such medications were recorded.

For `C=CC(=O)N1CCC[C@@H](n2nc(C(=O)Nc3ccc(CC(=O)N(C)C)c(C)c3C)c3c(N)ncnc32)C1` [TAS0728], the “Dermatitis acneiform, ≥Grade 3” value [1] was 0 n (%), the “Diarrhea, Grade 1” value [1] was 5 (71.4) n (%) and the “Diarrhea, Grade 2” value [1] was 5 (71.4) n (%). For the same compound, the “Diarrhea, Grade 3” value [1] was 3 (42.9) n (%), the “Diarrhea, Grade 4” value [1] was 0 n (%) and the “Diarrhea, Grade 5” value [1] was 0 n (%). The “Diarrhea, Total” value [1] was 6 (85.7) n (%), the “Diarrhea, ≥Grade 3” value [1] was 3 (42.9) n (%) and the “Dry skin, Grade 1” value [1] was 2 (28.6) n (%). For the same compound, the “Dry skin, Grade 2” value [1] was 0 n (%), the “Dry skin, Grade 3” value [1] was 0 n (%) and the “Dry skin, Grade 4” value [1] was 0 n (%). The “Dry skin, Grade 5” value [1] was 0 n (%), the “Dry skin, Total” value [1] was 2 (28.6) n (%) and the “Dry skin, ≥Grade 3” value [1] was 0 n (%). For the same compound, the “Fatigue, Grade 1” value [1] was 1 (14.3) n (%), the “Fatigue, Grade 2” value [1] was 3 (42.9) n (%) and the “Fatigue, Grade 3” value [1] was 0 n (%). The “Fatigue, Grade 4” value [1] was 0 n (%), the “Fatigue, Grade 5” value [1] was 0 n (%) and the “Fatigue, Total” value [1] was 3 (42.9) n (%). For the same compound, the “Fatigue, ≥Grade 3” value [1] was 0 n (%), the “Hypokalemia, Grade 1” value [1] was 2 (28.6) n (%) and the “Hypokalemia, Grade 2” value [1] was 0 n (%). For the same compound, the “Hypokalemia, Grade 3” value [1] was 0 n (%), the “Hypokalemia, Grade 4” value [1] was 0 n (%) and the “Hypokalemia, Grade 5” value [1] was 0 n (%). The “Hypokalemia, Total” value [1] was 2 (28.6) n (%), the “Hypokalemia, ≥Grade 3” value [1] was 0 n (%) and the “Nausea, Grade 1” value [1] was 1 (14.3) n (%). The “Nausea, Grade 2” value [1] was 2 (28.6) n (%), the “Nausea, Grade 3” value [1] was 0 n (%) and the “Nausea, Grade 4” value [1] was 0 n (%). For the same compound, the “Nausea, Grade 5” value [1] was 0 n (%), the “Nausea, Total” value [1] was 2 (28.6) n (%) and the “Nausea, ≥Grade 3” value [1] was 0 n (%). The “Oedema peripheral, Grade 1” value [1] was 2 (28.6) n (%), the “Oedema peripheral, Grade 2” value [1] was 0 n (%) and the “Oedema peripheral, Grade 3” value [1] was 0 n (%). The “Oedema peripheral, Grade 4” value [1] was 0 n (%), the “Oedema peripheral, Grade 5” value [1] was 0 n (%) and the “Oedema peripheral, Total” value [1] was 2 (28.6) n (%). For the same compound, the “Oedema peripheral, ≥Grade 3” value [1] was 0 n (%), the “Pyrexia, Grade 1” value [1] was 2 (28.6) n (%) and the “Pyrexia, Grade 2” value [1] was 1 (14.3) n (%). The “Pyrexia, Grade 3” value [1] was 0 n (%), the “Pyrexia, Grade 4” value [1] was 0 n (%) and the “Pyrexia, Grade 5” value [1] was 0 n (%). The “Pyrexia, Total” value [1] was 3 (42.9) n (%), the “Pyrexia, ≥Grade 3” value [1] was 0 n (%) and the “Vomiting, Grade 1” value [1] was 1 (14.3) n (%). The “Vomiting, Grade 2” value [1] was 1 (14.3) n (%), the “Vomiting, Grade 3” value [1] was 0 n (%) and the “Vomiting, Grade 4” value [1] was 0 n (%). The “Vomiting, Grade 5” value [1] was 0 n (%), the “Vomiting, Total” value [1] was 2 (28.6) n (%) and the “Vomiting, ≥Grade 3” value [1] was 0 n (%). For the same compound, the “Adverse events experienced in ≥10% patients, Grade 1” value [2] was 5 (83.3) n (%), the “Adverse events experienced in ≥10% patients, Grade 2” value [2] was 5 (83.3) n (%) and the “Adverse events experienced in ≥10% patients, Grade 3” value [2] was 3 (50.0) n (%). For the same compound, the “Adverse events experienced in ≥10% patients, Grade 4” value [2] was 0 n (%), the “Adverse events experienced in ≥10% patients, Grade 5” value [2] was 1 (16.7) n (%) and the “Adverse events experienced in ≥10% patients, Total” value [2] was 6 (100) n (%). The “Adverse events experienced in ≥10% patients, ≥Grade 3” value [2] was 3 (50.0) n (%), the “Back pain, Grade 1” value [2] was 1 (16.7) n (%) and the “Back pain, Grade 2” value [2] was 1 (16.7) n (%). The “Back pain, Grade 3” value [2] was 0 n (%), the “Back pain, Grade 4” value [2] was 0 n (%) and the “Back pain, Grade 5” value [2] was 0 n (%). For the same compound, the “Back pain, Total” value [2] was 2 (33.3) n (%), the “Back pain, ≥Grade 3” value [2] was 0 n (%) and the “Diarrhea, Grade 1” value [2] was 2 (33.3) n (%). The “Diarrhea, Grade 2” value [2] was 1 (16.7) n (%), the “Diarrhea, Grade 3” value [2] was 2 (33.3) n (%) and the “Diarrhea, Grade 4” value [2] was 0 n (%). For the same compound, the “Diarrhea, Grade 5” value [2] was 0 n (%), the “Diarrhea, Total” value [2] was 4 (66.7) n (%) and the “Diarrhea, ≥Grade 3” value [2] was 2 (33.3) n (%). The “Pyrexia, Grade 1” value [2] was 0 n (%), the “Pyrexia, Grade 2” value [2] was 2 (33.3) n (%) and the “Pyrexia, Grade 3” value [2] was 0 n (%). The “Pyrexia, Grade 4” value [2] was 0 n (%), the “Pyrexia, Grade 5” value [2] was 0 n (%) and the “Pyrexia, Total” value [2] was 2 (33.3) n (%). For the same compound, the “Pyrexia, ≥Grade 3” value [2] was 0 n (%), the “Vomiting, Grade 1” value [2] was 2 (33.3) n (%) and the “Vomiting, Grade 2” value [2] was 0 n (%). For the same compound, the “Vomiting, Grade 3” value [2] was 0 n (%), the “Vomiting, Grade 4” value [2] was 0 n (%) and the “Vomiting, Grade 5” value [2] was 0 n (%). The “Vomiting, Total” value [2] was 2 (33.3) n (%), the “Vomiting, ≥Grade 3” value [2] was 0 n (%) and the “Patients with AEs” value (Overall (N = 19)) was 19 (100) n, (%). The “Patients with AEs that had an outcome of death” value (Overall (N = 19)) was 1 (5.3) n, (%), the “Patients with AEs that led to study treatment discontinuation” value (Overall (N = 19)) was 3 (15.8) n, (%) and the “Patients with Grade ≥ 3 AEs” value (Overall (N = 19)) was 9 (47.4) n, (%). The “Patients with SAEs” value (Overall (N = 19)) was 8 (42.1) n, (%), the “Patients with treatment-related AEs” value (Overall (N = 19)) was 17 (89.5) n, (%) and the “Patients with treatment-related and Grade ≥ 3 AEs” value (Overall (N = 19)) was 6 (31.6) n, (%). For the same compound, the “Patients who died during the study” value (all dose levels) was 4, the “Patients who experienced an AE during the study” value (all treated population, all 19 patients) was 100.0% and the “TRAE incidence: diarrhea” value [3] was 78.9%. For the same compound, the “TRAE incidence: fatigue” value [3] was 21.1%, the “TRAE incidence: nausea” value [3] was 21.1% and the “TRAE incidence: vomiting” value [3] was 21.1%. The “TRAEs considered ≥Grade 3 in severity” value [3] was 31.6%, the “≥Grade 3 TRAE incidence: diarrhea” value [3] was 26.3% and the “Patients with an SAE considered related to study drug” value (all treated population, three of 19, diarrhea (200- and 150-mg BID), cardiac arrest (150 mg BID)) was 15.8%. The “Changes from baseline in clinical laboratory results and standard 12-lead ECG parameters” value (during the study) was “No clinically meaningful changes from baseline”, the “Patients who experienced an AE that led to study drug discontinuation” value (in total, all dose levels) was 4 and the “Deaths >30 days after the last dose of study treatment, all due to clinical progression” value (of 4 deaths) was 3. For the same compound, the “Patients who experienced ≥1 SAE” value (overall population, 8 of 19) was 42.1%, the “Patients with an SAE Grade 3 or higher in severity” value (overall population, five patients) was 26.3% and the “SAE incidence: acute kidney injury” value (overall, 1 patient) was 5.3%. The “SAE incidence: back pain” value (overall, 1 patient) was 5.3%, the “SAE incidence: cardiac arrest” value (overall, 1 patient) was 5.3% and the “SAE incidence: cellulitis” value (overall, 1 patient) was 5.3%. The “SAE incidence: clostridium colitis” value (overall, 1 patient) was 5.3%, the “SAE incidence: dysphagia” value (overall, 1 patient) was 5.3% and the “≥Grade 3 TRAE incidence: acute kidney injury” value (overall, 1 patient) was 5.3%. The “≥Grade 3 TRAE incidence: cardiac arrest” value (overall, 1 patient) was 5.3%, the “≥Grade 3 TRAE incidence: proteinuria” value (overall, 1 patient) was 5.3% and the “SAE incidence: diarrhea” value (overall, 2 patients) was 10.5%. For the same compound, the “SAE incidence: pyrexia” value (overall, 4 patients (2 each at 200 mg and 150 mg BID)) was 21.1%, the “Patients with diarrhea at a severity ≥Grade 3” value (reduced dose of 150 mg BID) was 2 and the Patients with diarrhea (reduced dose of 150 mg BID, 4 of 6) was 66.7%.
